Measured values published in patent publication US20030162222A1, “Method for selecting enzyme inhibitors” (priority 2000, published 2003).

Tests used:
[1] = tested on: 32D cells which express the mutant Bcr-Abl T315M; assay: Proliferation and survival of 32D cells expressing mutant Bcr-Abl T315M in the absence of interleukin-3; type: cell-based, murine; conditions: 32D cells expressing Bcr-Abl T315M; no interleukin-3; PP1 25 μM or STI571 1 μM
Method: (§1) Bcr-Abl is a constitutionally active tyrosine kinase which induces different forms of leukaemia in the animal model and humans.
(§2) The example is carried out by transfixing 32D cells with a plasmid by electroporation, i.e. with the aid of a current pulse. The plasmid codes for either wt Bcr-Abl or e.g. for the mutant T315M. These plasmids additionally carry a resistance marker; in this case a puromycin resistance gene. Transfixed cells are therefore selected by means of puromycin.
(§3) The cells are then characterised biologically. For this purpose interleukin-3 is removed from them as an essential survival and growth factor.
(§4) Both substances prevent both proliferation and survival of cells which express Bcr-Abl wt, and do so to the same extent (FIGS. 17 and 18).

[2] = tested on: Src kinases; conditions: partly from the literature; cited from earlier work
[3] = tested on: 32D cells which express wt Bcr-Abl; assay: Proliferation and survival of 32D cells expressing wt Bcr-Abl in the absence of interleukin-3; type: cell-based, murine; conditions: 32D cells expressing Bcr-Abl wt; no interleukin-3; PP1 25 μM or STI571 1 μM
Method: as §1, §2, §3, §4

Question: For `Cc1ccc(-c2nn(C(C)(C)C)c3ncnc(N)c23)cc1` [PP1], which “proliferation (cell growth)” value [1] is on record?
Answer: complete cessation of cell growth

Question: And the “inhibition of Src kinases” value [2]?
Answer: inhibited

Question: And the proliferation of cells [3]?
Answer: prevent
